Results published in patent US9453006B2, “Crystalline form having specific crystal habit and pharmaceutical composition containing this crystalline form as active ingredient” (POLA PHARMA INC., priority 2013, dated 2016).

What was measured:
Trichomonas = assay: Anti-Trichomonas effect, number of survived protozoa after 72 hours culture at 37° C. (Example 4); type: cell-based; details: for Number of survived protozoa: cultured 72 hours at 37° C.
Experimental: Each of Crystal 1 and Crystal 2 was correctly weighed in an amount of 3.45 mg, which was dissolved in 10 mL of ethanol, in the same manner as in Example 3. After confirming the absence of the crystal by visual observation, 100 μL of the solution was used as an aliquot, and 900 μL of physiological saline was added thereto. The resultant solution was subjected to the sterilizing filtration by using a filter having a pore size of […] a sample or specimen. 0.5 mL of each of the specimens was added to “Trichomonas medium F” (produced by Fuji Pharma Co., Ltd.). Further, 100 μL of Trichomonas culture, which had been precultured and prepared to give 2.7×10^5 individuals/mL by adding the medium, was added, followed by being cultured for 72 hours at 37° C. (final concentration: 2.4 μg/mL). After completing the cultivation, the number of survived individuals of Trichomonas was counted by using a hemocytometer.

[1] = system: Trichomonas vaginalis (clinically isolated strain); assay: Effect on Trichomonas vaginalis, number of survived individuals after 96 hours culture (Example 3); type: cell-based; details: for Number of survived individuals of Trichomonas: after 0.22 μm sterilizing filtration, cultured 96 hours
Excerpt: The effect on Trichomonas vaginalis (clinically isolated strain) of the crystal was investigated while being compared with a crystal having such a crystal habit that the (11-1) plane was the specific crystal growth plane. A solution of 10% ethanol/physiological saline was used as a control.
Crystal of Comparative Example described above was used as the crystal which had such a crystal habit that the (11-1) plane was the specific crystal growth plane. Crystal 2 was used as the crystal which had such a crystal habit that the (011) plane was the specific crystal growth plane.
Each of the crystals of luliconazole was weighed in an amount of 7.02 mg to which 10 mL of ethanol was added to dissolve the crystal. After confirming the absence of the crystal by visual observation, 100 μL of the solution was used as an aliquot, and 900 μL of physiological saline was added thereto. The resultant solution was subjected to the sterilizing filtration by using a filter having a pore size of 0.22 μm to provide a sample of 5.02 μg/mL (final concentration). 250 μL of an aliquot was taken therefrom, to which 250 μL of 10% ethanol/physiological saline was added to provide a sample of 2.51 μg/mL (final concentration).
0.5 mL of each of the samples was added to “Trichomonas medium F” (produced by Fuji Pharma Co., Ltd.), and 100 μL of Trichomonas culture (5×10^3 individuals of Trichomonas) was added thereto, followed by being cultured for 96 hours. After performing cooling for 10 minutes in ice water, the medium was stirred, which was spread on a hemocytometer to count a number of survived individuals of Trichomonas. As for a control, 0.5 mL of 10% ethanol/physiological saline was added in place of the sample. […] Further, according to the fact that the peak area ratio of the (011) plane was 26%, it is possible to estimate and acknowledge that the effect as described above is provided if I(011) with respect to the sum total of I(001), I(100), I(10-1), I(011), I(110), I(11-1), I(10-2), I(11-2), I(020), I(021), I(20-2), I(121), I(013), I(11-3), and I(221) is not less than 25%, provided that integrated intensities of diffraction peaks, which correspond to the (001), (100), (10-1), (011), (110), (11-1), (10-2), (11-2), (020), (021), (20-2), (121), (013), (11-3), and (221) planes, are designated as I(001), I(100), I(10-1), I(011), I(110), I(11-1), I(10-2), I(11-2), I(020), I(021), I(20-2), I(121), I(013), I(11-3), and I(221) respectively in relation to the diffraction peaks detected in a range of 2θ=5 to 35° in a powder X-ray diffraction pattern in which CuKα is used as an X-ray source.

[2] = sample 2.51 μg/mL (final concentration)
[3] = sample 5.02 μg/mL (final concentration)

SMILES: N#C/C(=C1/SC[C@@H](c2ccc(Cl)cc2Cl)S1)n1ccnc1 [Crystal 1, luliconazole]
- anti-Trichomonas effect (Trichomonas; Crystal 1 compared with Crystal 2): more excellent than that of Crystal 2
- Number of survived protozoa (Trichomonas; final concentration 2.4 μg/mL): 5.57 ± 0.42 100000 individuals/mL
- Number of survived protozoa (Trichomonas; final concentration 4.8 μg/mL): 0 100000 individuals/mL
- Number of survived protozoa (Trichomonas; final concentration 9.6 μg/mL): 0 100000 individuals/mL

SMILES: N#C/C(=C1/SC[C@@H](c2ccc(Cl)cc2Cl)S1)n1ccnc1 [Crystal 2, luliconazole]
- suppression of the growth of Trichomonas in the vicinity of MIC ([1]; compared with the crystal having the (11-1) plane as specific crystal growth plane): significantly excellent
- Number of survived individuals of Trichomonas [1, 2]: 23333 ± 5773 individuals/mL
- Number of survived individuals of Trichomonas [1, 3]: 23333 ± 5773 individuals/mL
- Number of survived protozoa (Trichomonas; final concentration 2.4 μg/mL): 6.57 ± 0.60 100000 individuals/mL
- Number of survived protozoa (Trichomonas; final concentration 4.8 μg/mL): 0 100000 individuals/mL
- Number of survived protozoa (Trichomonas; final concentration 9.6 μg/mL): 0 100000 individuals/mL

SMILES: N#C/C(=C1/SC[C@@H](c2ccc(Cl)cc2Cl)S1)n1ccnc1 [Crystal of Comp. Ex., luliconazole, reference compound]
- Number of survived individuals of Trichomonas [1, 2]: 116667 ± 15275 individuals/mL
- Number of survived individuals of Trichomonas [1, 3]: 23333 ± 5773 individuals/mL
